Measurements: patent US9790174B2, “Kinase inhibitors” (Respivert Limited, priority 2013, dated 2017)

How the values were obtained:
[1] = tested on: d-U937 cells; test: Accumulation of β catenin in d-U937 cells; format: cell-based, human; conditions: relative to Reference Compound at 1 μg/mL
Procedure: U937 cells, a human monocytic cell line, are differentiated into macrophage-type cells by incubation with PMA (100 ng/mL) for between 48 to 72 hr. The cells are then incubated with either final concentrations of test compound or vehicle for 18 hr. The induction of β-catenin by the test compounds is stopped by replacing the media with 4% formaldehyde solution. Endogenous peroxide activity is neutralised by incubating with quenching buffer (100 μL, 0.1% sodium azide, 1% H2O2 in PBS with 0.05% Tween-20) for 20 min. The cells are washed with washing buffer (200 pt; PBS containing 0.05% Tween-20) and incubated with blocking solution (200 pt; 5% milk in PBS) for 1 hr, re-washed with washing buffer (200 pt) and then incubated overnight with anti-β-catenin antibody solution (50 μL) in 1% BSA/PBS (BD, Oxford, UK).
After washing with washing buffer (3×200 pt; PBS containing 0.05% Tween-20), cells are incubated with a HRP-conjugated secondary antibody solution (100 μL) in 1% BSA/PBS (Dako, Cambridge, UK) and the resultant signal is determined colourimetrically (OD: 450 nm with a reference wavelength of 655 nm) using TMB substrate (50 μL; R&D Systems, Abingdon, UK). This reaction is stopped by addition of 1N H2SO4 solution (50 μL). Cells are then washed with washing buffer and 2% crystal violet solution (50 μL) is applied for 30 min. After washing with washing buffer (3×200 μL), 1% SDS (100 μL) is added to each well and the plates are shaken lightly for 1 hr prior to measuring the absorbance at 595 nm (Varioskan® Flash, Thermo-Fisher Scientific).
The measured OD450-655 readings are corrected for cell number by dividing the OD450-655 by the OD595 readings.

[2] = tested on: non-mutant kinases; test: KinomeScan selectivity scores; format: binding; conditions: evidenced by lower selectivity scores
Procedure: These assays may be conducted by DiscoverX (formerly Ambit; San Diego, Calif.). The percentage inhibition produced by incubation with a test compound may be calculated relative to the non-inhibited control.

[3] = tested on: intestinal mucosa biopsies from ulcerative colitis patients; test: Human biopsy assay (cytokine release from intestinal mucosa biopsies); format: cell-based; conditions: 1 μg/mL, 24 hours
Procedure: Intestinal mucosa biopsies are obtained from the inflamed regions of the colons of IBD patients. The biopsy material is cut into small pieces (2-3 mm) and placed on steel grids in an organ culture chamber at 37° C. in a 5% CO2/95% O2 atmosphere in serum-free media. DMSO control or test compounds at the desired concentration are added to the tissue and incubated for 24 hr in the organ culture chamber. The supernatant is harvested for determination of IL-6, IL-8, IL-1β and TNFα levels by R&D ELISA.

[4] = tested on: TNBS-induced colitis; test: TNBS-induced colitis in mice; format: in vivo, BDF1 mice; conditions: conducted over 2 days; oral
Procedure: Non-fasted, 10-12 week old, male BDF1 mice are dosed by oral gavage twice daily with either vehicle (5 mL/kg), reference item (Budesonide 2.5 mg/kg) or test compound (1 or 5 mg/kg) one day before (Day −1) stimulation of the inflammatory response by treatment with 2,4,6-trinitrobenzenesulphonic acid (TNBS) (15 mg/mL in 50% ethanol/50% saline). On Day 0 of the study TNBS (200 μL) is administered intra-colonically via a plastic catheter with BID dosing of the vehicle, reference or test compound continuing for 2 or 4 days. During the study, animals are weighed every day and stool observations are made and recorded as a score, based on stool consistency. At the time of sacrifice on Day 2 (or Day 4), the large intestine is removed and the length and weight recorded. Sections of the colon are taken for histopathology scoring to determine disease severity.

[5] = tested on: Salmonella typhimurium, strains TA98 and TA100; test: Mutagenicity assessment (bacterial reverse mutation screen); format: cell-based; conditions: TA98 and TA100, presence or absence of S-9 mix
Procedure: Studies were conducted by Sequani (Ledbury, Herefordshire, UK) to assess compounds of the invention for their ability to induce mutations in two histidine dependent auxotrophic mutants of Salmonella typhimurium, strains TA98 and TA100 in vitro.
The mutation screen was conducted using the plate incorporation method and was performed in both the presence and absence of S-9 mix (a liver post-mitochondrial fraction derived from the livers of Aroclor 1254 treated rats). The bacteria were exposed to test compounds dissolved in dimethylsulphoxide, which solvent was also used as the negative control. The dose levels used were 0.32, 1.6, 8, 40, 200, 1000 or 5000 μg/plate.

[6] = tested on: adoptive transfer colitis; test: Adoptive transfer in mice; format: in vivo, SCID mice
Procedure: On Study day 0, female Balb/C mice are terminated and spleens obtained for CD45RB^high cell isolation (Using SCID IBD cell Separation protocol). Approximately 4×10^5 cells/mL CD45RB^high cells are then injected intraperitoneally (100 μL/mouse) into female SCID animals. On study day 14, mice are weighed and randomized into treatment groups based on body weight. On Day 14, compounds are administered BID, via oral gavage, in a peanut oil vehicle at the dose levels outlined below in Tables 6a and 6b and a dose volume of 5 mL/kg. Treatment continues until study day 42, at which point the animals are necropsied 4 hours after the morning administration. The colon length and weight are recorded and used as a secondary endpoint in the study as a measurement of colon oedema. The colon is then divided into six cross-sections, four of which are used for histopathology scoring (primary endpoint) and two are homogenised for cytokine analysis. Data shown is the % inhibition of the induction window between nave animals and vehicle animals, where higher inhibition implies closer to the non-diseased, nave, phenotype.

[7] = molecular target: B-Raf (Homo sapiens (Human), UniProt P15056); test: KINOMEscan binding of kinase to standard ligand
B-Raf, sequence (P15056 whole entry): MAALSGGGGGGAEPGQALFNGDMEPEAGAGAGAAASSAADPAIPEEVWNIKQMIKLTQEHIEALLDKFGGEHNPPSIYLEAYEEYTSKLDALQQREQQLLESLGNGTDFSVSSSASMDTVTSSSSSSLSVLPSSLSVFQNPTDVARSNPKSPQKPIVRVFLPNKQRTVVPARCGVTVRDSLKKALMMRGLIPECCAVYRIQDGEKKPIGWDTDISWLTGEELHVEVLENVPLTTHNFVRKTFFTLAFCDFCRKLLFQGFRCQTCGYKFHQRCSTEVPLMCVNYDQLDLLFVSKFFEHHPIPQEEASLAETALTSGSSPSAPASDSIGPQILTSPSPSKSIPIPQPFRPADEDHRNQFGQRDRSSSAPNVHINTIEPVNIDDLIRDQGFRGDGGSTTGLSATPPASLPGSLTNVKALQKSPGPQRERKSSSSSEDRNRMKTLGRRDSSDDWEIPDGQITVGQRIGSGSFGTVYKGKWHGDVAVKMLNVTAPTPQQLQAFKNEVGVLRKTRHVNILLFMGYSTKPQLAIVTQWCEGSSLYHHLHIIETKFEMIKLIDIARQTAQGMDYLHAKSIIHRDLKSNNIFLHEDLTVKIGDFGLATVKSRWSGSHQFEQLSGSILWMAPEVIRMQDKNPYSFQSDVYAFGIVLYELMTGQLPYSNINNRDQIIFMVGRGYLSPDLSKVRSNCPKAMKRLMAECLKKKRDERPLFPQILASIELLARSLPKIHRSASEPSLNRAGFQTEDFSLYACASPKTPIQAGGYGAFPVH
Procedure: (§1) Kinase enzyme binding activities of compounds disclosed herein may be determined using a proprietary assay which measures active site-directed competition binding to an immobilized ligand (Fabian, M. A. et al., Nature Biotechnol., 2005, 23:329-336). These assays may be conducted by DiscoverX (formerly Ambit; San Diego, Calif.). The percentage inhibition produced by incubation with a test compound may be calculated relative to the non-inhibited control.

[8] = molecular target: B-Raf (V600E) (Homo sapiens (Human), UniProt P15056, V600E); test: KINOMEscan binding of kinase to standard ligand
B-Raf (V600E), sequence (P15056 whole entry V600E): as the sequence (P15056 whole entry) above, with V600E counted along it
Procedure: as §1

[9] = tested on: rat, Cynomolgus macaque or human hepatocytes; test: Analysis of metabolites in hepatocytes; format: in vitro ADME; conditions: 10 μM, 0, 60 and 90 minutes
Procedure: Studies were conducted by BioFocus (Saffron Walden, UK) to determine the metabolic fate of the compound of Example 16 following incubation with rat, Cynomolgus macaque or human hepatocytes.
Separate incubations (n=3) of the compound of Example 16 (10 μM initial concentration) or DMSO control, were performed with cryopreserved hepatocytes from each species (0.5 million cell/mL) at 37° C. for 0, 60 and 90 minutes before termination of reactions and compound extraction with acetonitrile. Sample replicates were pooled prior to analysis.
Potential metabolites were identified using time-of-flight (TOF) and triple quadruple (TQ) mass spectrometers.

[10] = molecular target: GSK 3α (Homo sapiens (Human), UniProt P49840); test: GSK 3α enzyme inhibition (Z-LYTE FRET, Method 1 / Method 2); format: biochemical; conditions: read-out: IC50 Values for Enzyme Inhibition GSK3α
GSK 3α, sequence (P49840 whole entry): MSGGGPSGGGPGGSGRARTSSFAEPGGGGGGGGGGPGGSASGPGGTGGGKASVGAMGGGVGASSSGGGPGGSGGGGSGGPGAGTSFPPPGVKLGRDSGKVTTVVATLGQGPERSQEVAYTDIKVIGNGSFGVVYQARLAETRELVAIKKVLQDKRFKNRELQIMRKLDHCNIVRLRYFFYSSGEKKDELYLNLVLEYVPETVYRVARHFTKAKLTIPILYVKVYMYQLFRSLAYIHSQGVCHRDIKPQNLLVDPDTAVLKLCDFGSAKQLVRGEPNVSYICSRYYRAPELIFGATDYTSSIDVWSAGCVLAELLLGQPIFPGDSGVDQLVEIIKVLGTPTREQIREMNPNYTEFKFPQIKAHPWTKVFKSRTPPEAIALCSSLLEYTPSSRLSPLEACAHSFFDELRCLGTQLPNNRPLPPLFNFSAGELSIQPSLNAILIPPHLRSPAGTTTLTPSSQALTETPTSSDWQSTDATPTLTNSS
Procedure: The enzyme inhibitory activities of compounds disclosed herein are determined by FRET using synthetic peptides labelled with both donor and acceptor fluorophores (Z-LYTE, Invitrogen Ltd., Paisley, UK).
The following two assay variants can be used for determination of GSK 3α inhibition.
The inhibitory activities of compounds of the invention against the GSK 3α enzyme isoform (Invitrogen), are evaluated by determining the level of activation/phosphorylation of the target peptide. The GSK3-α protein (500 ng/mL, 2.5 μL) is mixed with the test compound (2.5 μL at either 4 μg/mL, 0.4 μg/mL, 0.04 μg/mL, or 0.004 μg/mL) for 2 hr at RT. The FRET peptide (8 μM, 2.5 μL), which is a phosphorylation target for GSK3α, and ATP (40 μM, 2.5 μL) are then added to the enzyme/compound mixture and the resulting mixture incubated for 1 hr. Development reagent (protease, 5 μL) is added for 1 hr prior to detection in a fluorescence microplate reader (Varioskan® Flash, ThermoFisher Scientific).
In all cases, the site-specific protease cleaves non-phosphorylated peptide only and eliminates the FRET signal. Phosphorylation levels of each reaction are calculated using the ratio of coumarin emission (donor) over fluorescein emission (acceptor), for which high ratios indicate high phosphorylation and low ratios indicate low phosphorylation levels. […]

[11] = molecular target: CYP2C9 (Homo sapiens (Human), UniProt P11712); test: CYP2C9 inhibition studies; format: in vitro ADME
CYP2C9, sequence (P11712 whole entry): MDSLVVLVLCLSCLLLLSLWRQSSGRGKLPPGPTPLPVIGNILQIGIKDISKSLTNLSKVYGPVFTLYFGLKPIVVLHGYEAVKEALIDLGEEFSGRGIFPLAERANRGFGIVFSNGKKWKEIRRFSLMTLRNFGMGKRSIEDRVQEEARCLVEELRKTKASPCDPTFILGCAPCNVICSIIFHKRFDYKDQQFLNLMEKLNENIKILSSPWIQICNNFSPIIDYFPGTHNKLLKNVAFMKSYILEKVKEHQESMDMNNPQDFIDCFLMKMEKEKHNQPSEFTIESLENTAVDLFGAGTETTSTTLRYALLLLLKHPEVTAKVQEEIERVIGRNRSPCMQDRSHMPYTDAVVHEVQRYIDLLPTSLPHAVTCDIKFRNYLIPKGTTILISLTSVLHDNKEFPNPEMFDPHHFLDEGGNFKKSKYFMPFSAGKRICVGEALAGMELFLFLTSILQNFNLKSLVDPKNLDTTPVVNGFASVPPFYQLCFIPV
Procedure: Assessment of certain in vitro ADME (absorption, distribution, metabolism, and excretion) parameters for certain compounds of the invention was conducted by BioFocus (Saffron Walden, UK).

[12] = Hydrolytic stability study; format: physicochemical; conditions: DMSO and water (3:1), 1 mg/mL, 60° C.
Procedure: Chemical stability of compounds of the invention was assessed in a mixture of DMSO and water (3:1) at a test compound concentration of 1 mg/mL
Sample Preparation • A 1.0 mg sample of test compound was dissolved in 750 μL of DMSO. Water (250 μL) was added slowly, ensuring no precipitation occurred.
Recording Stability • A 50 μL aliquot of the test solution was removed and analysed in duplicate by 5 μL HPLC injections. The peak area for the test compound was recorded following manual integration of the corresponding UV trace. • The test solution was heated to 60° C., with stirring, and 50 μL aliquots removed for HPLC analysis at 5 and 24 h timepoints.

COCCOCCOCCOc1cc(Nc2nccc(Oc3ccc(NC(=O)Nc4cc(C(C)(C)C)cc(NS(=O)(=O)N5CCOCC5)c4OC)c4ccccc34)n2)cc(OC)c1 [83(b), N-(5-(tert-butyl)-2-methoxy-3-(3-(4-((2-((3-methoxy-5-(2-(2-(2-methoxyethoxy)ethoxy)-ethoxy)phenyl)amino)pyrimidin-4-yl)oxy)naphthalen-1-yl)ureido)phenyl)morpholine-4-sulfonamide]
% β-catenin induction ([1]; test compound 10 μg/mL): −6%

C#Cc1cc(Nc2nccc(Oc3ccc(NC(=O)Nc4cc(C(C)(C)C)cc(NS(C)(=O)=O)c4OC)c4ccccc34)n2)cc(C(=O)NCCOCCOCCOC)c1 [Example 16, 3-((4-((4-(3-(5-(tert-Butyl)-2-methoxy-3-(methylsulfonamido)phenyl)ureido)naphthalen-1-yl)oxy)pyrimidin-2-yl)amino)-5-ethynyl-N-(2-(2-(2-methoxyethoxy)ethoxy)ethyl)benzamide]
selectivity compared to the Reference Compound [2]: substantially improved selectivities | cytokine (IL-1β, IL-6 and IL-8) release compared to the DMSO control [3]: significantly inhibited | activity in TNBS model of colonic inflammation (histopathology analysis) [4]: displayed substantial activity | increases in revertant colonies [5]: no dose-related or statistically significant increases in revertant colonies | activity in T cell driven model of colonic inflammation (ratios of colon weight to length) ([6]; adoptive transfer): displayed significant activity | levels of pro-inflammatory cytokines in samples of colon tissue ([6]; adoptive transfer model): significantly reduced levels of pro-inflammatory cytokines | effect on the binding of B-Raf to its standard ligand [7]: did not have any significant effect | effect on the binding of B-Raf (V600E) to its standard ligand [8]: did not have any significant effect | metabolism at the naphthalene moiety [9]: no products were noted that could be connected to metabolism at the naphthalene moiety | number of metabolites resulting from oxidation on the polyethylene glycol chain of the amide moiety [9]: 8

C#Cc1cc(Nc2cc(Oc3ccc(NC(=O)Nc4cc(C(C)(C)C)cc(NS(C)(=O)=O)c4OC)c4ccccc34)ccn2)cc(C(=O)NCCOCCOCCOC)c1 [Example 54, 3-((4-((4-(3-(5-(tert-Butyl)-2-methoxy-3-(methylsulfonamido)phenyl)ureido)naphthalen-1-yl)oxy)pyridin-2-yl)amino)-5-ethynyl-N-(2-(2-(2-methoxyethoxy)ethoxy)ethyl)benzamide]
% β-catenin induction ([1]; test compound 5 μg/mL): 5%

C#Cc1cc(Nc2cc(Oc3ccc(NC(=O)Nc4cc(C(C)(C)C)cc(NS(C)(=O)=O)c4OC)c4ccccc34)ccn2)cc(C(=O)N[C@H](C)COCCOCCOC)c1 [Example 68, (R)-3-((4-((4-(3-(5-(tert-Butyl)-2-methoxy-3-(methylsulfonamido)phenyl)ureido)-naphthalen-1-yl)oxy)pyridin-2-yl)amino)-5-ethynyl-N-(1-(2-(2-methoxyethoxy)ethoxy)-propan-2-yl)benzamide]
% β-catenin induction ([1]; test compound 5 μg/mL): 2%

COc1cc(Nc2cc(Oc3ccc(NC(=O)Nc4cc(C(C)(C)C)cc(NS(C)(=O)=O)c4OC)c4ccccc34)ccn2)cc(C(=O)NCCN2CCNCC2)c1 [Example 85(q)]
IC50 [10]: 249 nM

C#CC(C)(C)c1cc(NC(=O)Nc2ccc(Oc3ccnc(Nc4cc(C)c5[nH]ncc5c4)n3)c3ccccc23)n(-c2ccc(C)cc2)n1 [Ref Cpd A]
% Inh (inhibition at 5 μM reported instead) ([11]; CYP2C9, 0 min preincubation): 31^[†] % | % Inh (inhibition at 5 μM reported instead) ([11]; CYP2C9, 30 min preincubation): 66^[†] %

C#Cc1cc(Nc2nccc(Oc3ccc(NC(=O)Nc4cc(C(C)C)nn4-c4ccc(C)cc4)c4ccccc34)n2)cc(C(=O)NCCN2CCOCC2)c1 [Reference Compound B, 3-ethynyl-5-((4-((4-(3-(3-isopropyl-1-(p-tolyl)-1H-pyrazol-5-yl)ureido)naphthalen-1-yl)oxy)pyrimidin-2-yl)amino)-N-(2-morpholinoethyl)benzamide]
decomposition [12]: underwent substantial decomposition
